Data on five compounds can be found in patent publication US11266146B2, “Microbiocidal quinoline (thio)carboxamide derivatives” (SYNGENTA PARTICIPATIONS AG, priority 2017, dated 2022).

A word on the melting point: it is the temperature of the solid-liquid transition.

For data set [1], the system named is Glomerella lagenarium (Colletotrichum lagenarium). In words: Glomerella lagenarium (Colletotrichum lagenarium) / liquid culture (Anthracnose). The note with it: Colletotrichum orbiculare, growth inhibition photometrically 3-4 days after application, vs untreated control. In kind it is cell-based.
Data set [2] has as its system Fusarium culmorum. The data set can be described thus: microbe, parasite or virus in culture. In kind it is cell-based. To be noted: read-out: control of Fusarium culmorum.
Data set [3] deals with Monographella nivalis (Microdochium nivale). The data set can be described thus: Monographella nivalis (Microdochium nivale) / liquid culture (foot rot cereals). Format: cell-based. The note with it: growth inhibition photometrically 4-5 days after application, vs untreated control.
For data set [4], the system named is Magnaporthe grisea (Pyricularia oryzae). The data set can be described thus: microbe, parasite or virus in culture. Format: cell-based. To be noted: read-out: control of Magnaporthe grisea.
For data set [5], the system named is Botryotinia fuckeliana (Botrytis cinerea). In words: Botryotinia fuckeliana (Botrytis cinerea) / liquid culture (Gray mould). The note with it: growth inhibition photometrically 3-4 days after application, vs untreated control. Format: cell-based.
Data set [6] has as its system Fusarium culmorum. In words: whole plant or invertebrate. To be noted: in Triticum aestivum, 144 h, read-out: control of Fusarium culmorum. In kind it is in vivo.

Consider `Cc1cccc2cc(C(=O)NC(C)(Cc3cccc(F)n3)CC(F)(F)F)cnc12` (centres unmarked) [E33], for which the inhibition of growth at 20 ppm in data set [1], in data set [2], in data set [3], in data set [4] and in data set [5] was not below 80% throughout. In addition, the pest or weed control at 200 ppm in data set [6] is not below 80%.
Consider `CC(C)CC(C)(Cc1ccc(Cl)s1)NC(=O)c1cnc2c(F)cccc2c1` (centres unmarked) [E14, N-[1-[(5-chloro-2-thienyl)methyl]-1,3-dimethyl-butyl]-8-fluoro-quinoline-3-carboxamide], for which the melting point lay within 126 to 128 °C. Also, in data set [1], the inhibition of growth at 20 ppm is not below 80%. Besides, in data set [2], the inhibition of growth at 20 ppm was not below 80%. Also, the inhibition of growth at 20 ppm in data set [3] was not below 80%. Also, the inhibition of growth at 20 ppm in data set [4] is not below 80%. This compound also had an inhibition of growth at 20 ppm in data set [5] not below 80%. In data set [6], the pest or weed control at 200 ppm was not below 80%.
Regarding `CC(C)CC(C)(CN1CCCCO1)NC(=O)c1cnc2c(F)cccc2c1` (centres unmarked) [E6], the inhibition of growth at 20 ppm in data set [1], in data set [2], in data set [3], in data set [4] and in data set [5] was not below 80% throughout. For the same compound, the pest or weed control at 200 ppm in data set [6] was not below 80%.
As to `CC(C)CC(C)(CN1CCCC=N1)NC(=O)c1cnc2c(F)cccc2c1` (centres unmarked) [E24], the inhibition of growth at 20 ppm in data set [1], in data set [3] and in data set [5] was not below 80% in each case. In addition, the pest or weed control at 200 ppm in data set [6] is not below 80%.
With `CC(C)C[C@@](C)(CN1CCCC(F)(F)C1)NC(=O)c1cnc2c(F)cccc2c1` (single isomer, unassigned) [F2], the inhibition of growth at 20 ppm in data set [1], in data set [2], in data set [3], in data set [4] and in data set [5] was not below 80% throughout. In data set [6], the pest or weed control at 200 ppm was not below 80%.
